{
  "source": "patent US20040166058A1",
  "about": "“Ethylenedicysteine (EC)-drug conjugates, compositions and methods for tissue specific disease imaging” (Board of Regents, The University of Texas System, priority 2002, published 2004)",
  "tested_on": "human lung cancer cells (A549 tumor cell line)",
  "assay": "Biodistribution in lung tumor-bearing nude mice",
  "format": "in vivo, athymic nude mice",
  "settings": "for Biodistribution Blood / Biodistribution Brain / Biodistribution Heart / Biodistribution Intestine / Biodistribution Kidney / Biodistribution Liver / Biodistribution Lung / Biodistribution Muscle / Biodistribution Spleen / Biodistribution Stomach / Biodistribution Thyroid / Biodistribution Tumor / Tumor/Blood / Tumor/Lung / Tumor/Muscle: intravenously",
  "method": "Female athymic nude mice (NCr-nu/nu, NCI, Bethasda, Md.) were inoculated with human lung cancer cells (A549 tumor cell line, 3×10^6 cells/mouse, intramuscular) by one author in the mid-dorsal region. After the tumor reached 6 mm, separate biodistribution studies using ^99mTc-EC-DG and 18F-FDG were conducted. Each received ^99mTc-EC-DG or 18F-FDG intravenously (n=3/time point). The injection activity was 1-3 μCi/mouse. The injected mass of ^99mTc-EC-DG was 0.2 mg/rodent.",
  "data": [
    {"compound": "OC[C@H]1OC(O)[C@H]([18F])[C@@H](O)[C@@H]1O", "note": "(stereo partly shown) [^18FDG, [^18F]fluorodeoxyglucose, reference compound]", "values": [
      {"measurement": "Biodistribution Blood", "setting": "30 min", "result": "0.793 ± 0.067 % of injected dose per gram of tissue weight"},
      {"measurement": "Biodistribution Brain", "setting": "30 min", "result": "6.557 ± 0.390 % of injected dose per gram of tissue weight"},
      {"measurement": "Biodistribution Heart", "setting": "30 min", "result": "11.94 ± 2.571 % of injected dose per gram of tissue weight"},
      {"measurement": "Biodistribution Intestine", "setting": "30 min", "result": "2.322 ± 0.542 % of injected dose per gram of tissue weight"},
      {"measurement": "Biodistribution Kidney", "setting": "30 min", "result": "1.137 ± 0.117 % of injected dose per gram of tissue weight"},
      {"measurement": "Biodistribution Liver", "setting": "30 min", "result": "1.051 ± 0.057 % of injected dose per gram of tissue weight"},
      {"measurement": "Biodistribution Lung", "setting": "30 min", "result": "2.490 ± 0.209 % of injected dose per gram of tissue weight"},
      {"measurement": "Biodistribution Muscle", "setting": "30 min", "result": "4.876 ± 0.621 % of injected dose per gram of tissue weight"},
      {"measurement": "Biodistribution Spleen", "setting": "30 min", "result": "1.824 ± 0.196 % of injected dose per gram of tissue weight"},
      {"measurement": "Biodistribution Stomach", "setting": "30 min", "result": "5.046 ± 0.461 % of injected dose per gram of tissue weight"},
      {"measurement": "Biodistribution Thyroid", "setting": "30 min", "result": "4.490 ± 0.526 % of injected dose per gram of tissue weight"},
      {"measurement": "Biodistribution Tumor", "setting": "30 min", "result": "2.226 ± 0.150 % of injected dose per gram of tissue weight"},
      {"measurement": "Tumor/Blood", "setting": "30 min", "result": "2.821 ± 0.144"},
      {"measurement": "Tumor/Lung", "setting": "30 min", "result": "0.912 ± 0.119"},
      {"measurement": "Tumor/Muscle", "setting": "30 min", "result": "0.463 ± 0.026"},
      {"measurement": "Biodistribution Blood", "setting": "2 h", "result": "0.236 ± 0.009 % of injected dose per gram of tissue weight"},
      {"measurement": "Biodistribution Brain", "setting": "2 h", "result": "3.113 ± 0.132 % of injected dose per gram of tissue weight"},
      {"measurement": "Biodistribution Heart", "setting": "2 h", "result": "20.33 ± 7.675 % of injected dose per gram of tissue weight"},
      {"measurement": "Biodistribution Intestine", "setting": "2 h", "result": "2.764 ± 0.496 % of injected dose per gram of tissue weight"},
      {"measurement": "Biodistribution Kidney", "setting": "2 h", "result": "0.553 ± 0.104 % of injected dose per gram of tissue weight"},
      {"measurement": "Biodistribution Liver", "setting": "2 h", "result": "0.586 ± 0.040 % of injected dose per gram of tissue weight"},
      {"measurement": "Biodistribution Lung", "setting": "2 h", "result": "2.222 ± 0.137 % of injected dose per gram of tissue weight"},
      {"measurement": "Biodistribution Muscle", "setting": "2 h", "result": "5.409 ± 0.611 % of injected dose per gram of tissue weight"},
      {"measurement": "Biodistribution Spleen", "setting": "2 h", "result": "1.903 ± 0.144 % of injected dose per gram of tissue weight"},
      {"measurement": "Biodistribution Stomach", "setting": "2 h", "result": "4.374 ± 0.864 % of injected dose per gram of tissue weight"},
      {"measurement": "Biodistribution Thyroid", "setting": "2 h", "result": "4.617 ± 0.400 % of injected dose per gram of tissue weight"},
      {"measurement": "Biodistribution Tumor", "setting": "2 h", "result": "1.699 ± 0.172 % of injected dose per gram of tissue weight"},
      {"measurement": "Tumor/Blood", "setting": "2 h", "result": "7.261 ± 1.007"},
      {"measurement": "Tumor/Lung", "setting": "2 h", "result": "0.775 ± 0.113"},
      {"measurement": "Tumor/Muscle", "setting": "2 h", "result": "0.319 ± 0.031"},
      {"measurement": "Biodistribution Blood", "setting": "4 h", "result": "0.203 ± 0.062 % of injected dose per gram of tissue weight"},
      {"measurement": "Biodistribution Brain", "setting": "4 h", "result": "2.065 ± 0.080 % of injected dose per gram of tissue weight"},
      {"measurement": "Biodistribution Heart", "setting": "4 h", "result": "19.35 ± 8.286 % of injected dose per gram of tissue weight"},
      {"measurement": "Biodistribution Intestine", "setting": "4 h", "result": "1.562 ± 0.342 % of injected dose per gram of tissue weight"},
      {"measurement": "Biodistribution Kidney", "setting": "4 h", "result": "0.568 ± 0.027 % of injected dose per gram of tissue weight"},
      {"measurement": "Biodistribution Liver", "setting": "4 h", "result": "0.785 ± 0.039 % of injected dose per gram of tissue weight"},
      {"measurement": "Biodistribution Lung", "setting": "4 h", "result": "2.280 ± 0.182 % of injected dose per gram of tissue weight"},
      {"measurement": "Biodistribution Muscle", "setting": "4 h", "result": "4.743 ± 0.610 % of injected dose per gram of tissue weight"},
      {"measurement": "Biodistribution Spleen", "setting": "4 h", "result": "1.591 ± 0.161 % of injected dose per gram of tissue weight"},
      {"measurement": "Biodistribution Stomach", "setting": "4 h", "result": "2.278 ± 0.455 % of injected dose per gram of tissue weight"},
      {"measurement": "Biodistribution Thyroid", "setting": "4 h", "result": "4.424 ± 0.442 % of injected dose per gram of tissue weight"},
      {"measurement": "Biodistribution Tumor", "setting": "4 h", "result": "1.606 ± 0.182 % of injected dose per gram of tissue weight"},
      {"measurement": "Tumor/Blood", "setting": "4 h", "result": "8.932 ± 1.973"},
      {"measurement": "Tumor/Lung", "setting": "4 h", "result": "0.717 ± 0.106"},
      {"measurement": "Tumor/Muscle", "setting": "4 h", "result": "0.346 ± 0.048"},
      {"measurement": "tumor/blood ratios, 18F-FDG versus ^99mTc-EC-DG", "setting": "mouse, in vivo", "result": "higher tumor/blood ratios"}
    ]}
  ]
}
